Legend:
human BACE1 = human BACE1 (Homo sapiens, UniProt P56817); test: Fluorescent kinetic assay, inhibition of BACE1 (WABC-6 peptide substrate); assay type: biochemical; conditions: 10 nM enzyme, 25 μM substrate WABC-6, pH 4.5, room temperature; read-out: IC50 (μM) BACE1;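 note: fluorescence monitored at 320 nm excitation and 420 nm emission every 40 s over 30 min, with the substrate cleavage rate taken from the linear slope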
human BACE2 = target: T1, human BACE2 (Homo sapiens, UniProt Q9Y5Z0); test: Fluorescent Kinetic Assay for Human Recombinant BACE 2 (selectivity BACE1/BACE2); assay type: biochemical; conditions: selectivity BACE1 over BACE2; 1.5 nM human BACE2, 25 μM substrate, pH 4.5;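 note: cleavage rate from the linear slope of fluorescence (excitation 320 nm, emission 420 nm) recorded every 40 s over 30 min at room temperature, sodium acetate buffer with 0.05% CHAPS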
T1 sequence (Q9Y5Z0 63-518): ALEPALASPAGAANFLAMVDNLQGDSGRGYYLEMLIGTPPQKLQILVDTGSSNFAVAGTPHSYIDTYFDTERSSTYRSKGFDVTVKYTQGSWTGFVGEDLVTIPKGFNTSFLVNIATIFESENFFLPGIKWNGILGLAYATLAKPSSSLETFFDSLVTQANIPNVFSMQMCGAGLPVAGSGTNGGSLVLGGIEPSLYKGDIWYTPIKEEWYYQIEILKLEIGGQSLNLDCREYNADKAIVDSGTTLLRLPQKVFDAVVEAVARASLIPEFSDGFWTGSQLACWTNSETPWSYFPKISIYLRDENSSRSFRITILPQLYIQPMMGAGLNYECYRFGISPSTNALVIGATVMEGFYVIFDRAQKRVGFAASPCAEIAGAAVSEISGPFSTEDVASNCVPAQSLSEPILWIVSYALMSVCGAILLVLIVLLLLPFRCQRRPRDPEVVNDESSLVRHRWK

Sequence of human BACE1 (P56817 46-501): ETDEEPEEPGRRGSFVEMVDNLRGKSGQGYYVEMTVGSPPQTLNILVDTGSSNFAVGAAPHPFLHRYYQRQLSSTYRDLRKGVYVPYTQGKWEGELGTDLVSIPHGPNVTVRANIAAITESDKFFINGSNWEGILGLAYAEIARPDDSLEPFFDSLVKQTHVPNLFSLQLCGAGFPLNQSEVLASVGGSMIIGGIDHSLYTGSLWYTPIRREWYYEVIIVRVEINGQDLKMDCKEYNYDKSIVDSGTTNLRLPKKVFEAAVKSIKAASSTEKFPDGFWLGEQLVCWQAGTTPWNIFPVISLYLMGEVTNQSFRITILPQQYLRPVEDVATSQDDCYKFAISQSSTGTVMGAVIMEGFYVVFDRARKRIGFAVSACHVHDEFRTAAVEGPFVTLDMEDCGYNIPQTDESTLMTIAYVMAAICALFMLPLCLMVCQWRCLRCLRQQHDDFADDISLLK

| IC50 (human BACE1) | BACE1/BACE2 selectivity (human BACE2) | melting point | Structure (SMILES) |
| --- | --- | --- | --- |
| 0.01 to 0.1 µM | II (II = 10-100-fold selectivity) | 85 to 95 °C | CN1C(=O)C(c2ccc(OCCF)c(OCCF)c2)(c2ccc(F)c(-c3cccnc3F)c2)N=C1N (stereo not drawn) [Example 104, 2-Amino-5-[3,4-bis-(2-fluoro-ethoxy)-phenyl]-5-[4-fluoro-3-(2-fluoro-pyridin-3-yl)-phenyl]-3-methyl-3,5-dihydro-imidazol-4-one] |
| 0.11 to 1 µM | II (II = 10-100-fold selectivity) | 216 to 218 °C | CN1C(=O)C(c2ccc(OC(F)(F)F)cc2)(c2ccc(F)c(-c3cncc(F)c3)c2)N=C1N (stereo not drawn) [Example 47] |
| 0.01 to 0.1 µM | II (II = 10-100-fold selectivity) | 95 °C | CN1C(=O)C(c2ccc(SC(F)(F)F)cc2)(c2ccc(F)c(-c3cccnc3F)c2)N=C1N (stereo not drawn) [Example 93] |
| 0.01 to 0.1 µM | II (II = 10-100-fold selectivity) | 105 to 106 °C | Cc1cc(C2(c3ccc(F)c(-c4cccnc4F)c3)N=C(N)N(C)C2=O)ccc1OCCF (stereo not drawn) [Example 112] |
| 0.01 to 0.1 µM | II (II = 10-100-fold selectivity) | 104 to 107 °C | COc1cc(C2(c3cccc(-c4cccnc4)c3)N=C(N)N(C)C2=O)cc(OC)c1OC (stereo not drawn) [Example 23] |
| 0.01 to 0.1 µM | I (I = >100-fold selectivity) | 106 to 108 °C | CCOc1ccc(C2(c3cccc(-c4cncnc4)c3)N=C(N)N(C)C2=O)cc1C (stereo not drawn) [Example 120] |
| 0.01 to 0.1 µM | III (III = <10-fold selectivity) | 93 to 95 °C | CCOc1ccc(C2(c3ccc(F)c(-c4cccnc4)c3)N=C(N)N(C)C2=O)cc1OCC (stereo not drawn) [Example 99] |

Reference: patent US7700602B2, “Amino-5,5-diphenylimidazolone derivatives for the inhibition of β-secretase” (Wyeth LLC, priority 2004, dated 2010)
